Data: patent US20240053330A1, “MODULAR KINETICALLY-CONTROLLED FUNCTIONAL RNA CONSTRUCTS AND RELATED COMPOSITIONS, SYSTEMS, AND METHODS” (UNIVERSITY OF WASHINGTON, priority 2021, published 2024)

Tested on: J306 target with alternative PAM sequences
Assay: CRISPRa at alternative PAM sites of the J3-J23117-mRFP1 reporter
Format: cell-based, E. coli
From the text: FIGS. 31A and 31B illustrate that dxCas9(3.7) expands the range of targetable scRNA target sites by recognizing alternative PAMs. […] Reporter plasmids were constructed by replacing the AGG PAM site for the J306 target in the J3-J23117-mRFP1 reporter with alternative PAM sequences that have been previously reported to be recognized by dxCas9(3.7) in human cells (Hu, J. H. et al. Evolved Cas9 variants with broad PAM compatibility and high DNA specificity. Nature 556, 57-63 (2018), incorporated herein by reference in its entirety). The (−) sign indicates a control expressing the original reporter with the AGG PAM and the CRISPRa components with Sp-dCas9, the activation domain and no scRNA.
Considering there is a limited number of genes with an appropriate NGG PAM site at precisely the optimal position upstream of the promoter, it was attempted to expand the scope of targetable PAM sites for CRISPRa. A recently characterized dCas9 variant, dxCas9(3.7), that has improved activity at a variety of non-NGG PAM sites including NGN, GAA, GAT, and CAA6 was used. […] PAM sites than NGG PAM sites (not shown), Accounting for the fact that dCas9 has some activity at non-NGG sites6 (FIG. 31), there are still on average ˜2.2-fold more dxCas9(3.7)-compatible PAM sites than dCas9-compatible PAM sites (not shown). […]

Substance: Sp-dCas9: S. pyogenes dCas9
- CRISPRa activity (in words) (non-NGG PAM sites AGA, CGA, GGA, GGC, GGT, TGA): moderate CRISPRa activity
- activation of AGT PAM site shifted into the peak activation range (in words) (reporter with five bases inserted): ineffective
